Assay results: patent US9090669B2, “Short fatty acid tail polymyxin derivatives and uses thereof” (priority 2008, dated 2015)
Where two headings read alike, the source gives them in different places. Positions of bridges follow the written chain, without caps; N, C: chain ends. Non-standard residues stand in square brackets, D forms with d. Residues, ends and D or L forms follow the SMILES beside them. *: point of attachment. Octanoyl = CCCCCCCC(=O)*; Dab = NCC[C@H](N)C(=O)O

How the values were obtained:
[1] = tested on: E. coli IH3080; assay: Agar well growth inhibition on LB plates with or without rifampin; type: cell-based, Escherichia coli; details: well containing 4 micrograms of the compound; for Activity w. rifampin: growth inhibition around a well: LB plate containing rifampin 0.1 micrograms/ml; for Direct activity: growth inhibition around a well: LB plates
[2] = rat, in vivo; cited from earlier work
[3] = Basic pharmacokinetics after i.v. bolus in rats; type: in vivo, rat (Sprague-Dawley); details: rat
Description: Blood samples were centrifuged to obtain plasma. […] Plasma and urine samples were stored at −80° C. […] NAB 741 was eluted at 6.65±0.05 min and NAB739 was eluted at 9.45±0.05 min.

[4] = tested on: E. coli (ATCC25922 and IH3080), K. pneumoniae ATCC13883, and E. cloacae ATCC23355; type: cell-based; details: all four strains; NAB741 alone
Description: MICs were determined by using E-strips (Biodisk Ltd., Solna, Sweden) according to the manufacturer's instructions.

[5] = tested on: Ac. baumannii ATCC19606; assay: E-test MIC of antibacterial agents on Mueller-Hinton agar with or without NAB741; type: cell-based; details: Acinetobacter baumannii; A. baumannii ATCC19606; meropenem alone; read-out: MIC of meropenem at NAB 741 concn 0 μg/ml
Description: (§1) Five of the strains originated from ATCC. Acinetobacter baumannii F264 was purchased from Mobidiag Ltd., Helsinki, Finland. The source of E. coli IH3080 has been given in Example 2.
(§2) Sensitization factor was defined as in Example 4. NAB7061 sensitized the meropenem-resistant strain F264 to meropemen by a factor >4.

[6] = tested on: Ac. baumannii F264; assay: as above; type: cell-based; details: Acinetobacter baumannii; A. baumannii F264 (meropenem-resistant); meropenem alone; read-out: MIC of meropenem at NAB 741 concn 0 μg/ml
Description: as §1, §2

[7] = tested on: bacteria; details: Sakura et al. (2004); cited from earlier work

Compound	Activity w. rifampin: growth inhibition around a well [1]	Direct activity: growth inhibition around a well [1]	further results
Polymyxin B heptapeptide	0 square millimeters	0 square millimeters	
Deacylpolymyxin B	79 square millimeters	57 square millimeters	
Polymyxin B	95 square millimeters	79 square millimeters	
acetyl-Thr-DAsn-cy[Dab-Dab-DPhe-Leu-Dab-Dab-Thr-] [NAB 745]	50 square millimeters	0 square millimeters	
Colistin (polymyxin E)			clearance [2]: 5.2 ± 0.4 mL/min/kg; half-life [2]: 1.24 ± 0.22 h; renal clearance [2]: 0.010 ± 0.008 mL/min/kg; volume of distribution [2]: 0.496 ± 0.06 L/kg
CC(=O)N[C@H](C(=O)N[C@H](CO)C(=O)N[C@H]1CCNC(=O)[C@H]([C@@H](C)O)NC(=O)[C@H](CCN)NC(=O)[C@H](CCN)NC(=O)[C@H](CC(C)C)NC(=O)[C@@H](Cc2ccccc2)NC(=O)[C@H](CCN)NC1=O)[C@@H](C)O [NAB 741, acetyl-Thr-DSer-cy[Dab-Dab-DPhe-Leu-Dab-Dab-Thr-]] (Ac-T[dS][Dab][Dab][dF]L[Dab][Dab]T; lactam 3-C (inferred))			urinary recovery ([3]; in vivo, iv, 1 mg/kg): 50.9±13.6 % of dose in 24 h; volume of distribution ([3]; in vivo, iv, 1 mg/kg): 0.243 ± 0.024 L/kg; MIC of NAB741 [4]: > 16 µg/mL
CCCCCCCC(=O)N[C@H](C(=O)N[C@H](CO)C(=O)N[C@H]1CCNC(=O)[C@H]([C@@H](C)O)NC(=O)[C@H](CCN)NC(=O)[C@H](CCN)NC(=O)[C@H](CC(C)C)NC(=O)[C@@H](Cc2ccccc2)NC(=O)[C@H](CCN)NC1=O)[C@@H](C)O [NAB 739] (Octanoyl-T[dS][Dab][Dab][dF]L[Dab][Dab]T; lactam 3-C)			clearance ([3]; acetate 1 mg/kg i.v. bolus): 2.63 ± 0.54 mL/min/kg; renal clearance ([3]; acetate 1 mg/kg i.v. bolus): 0.53 ± 0.30 mL/min/kg; volume of distribution ([3]; acetate 1 mg/kg i.v. bolus): 0.222 ± 0.0205 L/kg; half-life ([3]; acetate 1 mg/kg i.v. bolus, plasma): 1.15 ± 0.365 h
C[C@@H](O)[C@H]1C(=O)N2C(C(=O)O)=C(S[C@@H]3CN[C@H](C(=O)N(C)C)C3)[C@H](C)[C@H]12 [meropenem]			MIC [5]: 0.75 µg/mL; MIC [6]: > 32 µg/mL
Deacylcolistin	87 square millimeters	79 square millimeters	
octanoyl polymyxin B heptapeptide [Octanoyl PMBH]	0 square millimeters	0 square millimeters	Concentration that inhibits the growth of bacteria [7]: 128 µg/mL
Polymyxin B nonapeptide [Polymyxin B nonpeptide]	20 square millimeters	0 square millimeters	
